Results as given in PMC11201828, “A Novel Dimeric Short Peptide Derived from α-Defensin-Related Rattusin with Improved Antimicrobial and DNA-Binding Activities” (Biomolecules, 2024).
In brackets after ≈: the same amount, converted by molar mass. Where two headings read alike, the source gives them in different places. Positions of bridges follow the written chain, without caps; N, C: chain ends. Residues, ends and D or L forms follow the SMILES beside them. Chains are numbered I, II in the order given. No end group written: not given here.

Experiments:
bacterial strains = format: cell-based; conditions: strain not given; see Tables 1 and 2
Procedure: (§1) The minimal inhibitory concentrations (MICs) of the peptides were determined following the broth microdilution method recommended by the Clinical and Laboratory Standards Institute (CLSI). Briefly, bacteria in their mid-logarithmic growth phase were diluted in Mueller–Hinton broth (MHB) (Difco, Franklin Lakes, NJ, USA) and aliquoted into a 96-well microtiter plate at a density of 4 × 10^6 CFU/well. The assay included both Gram-negative bacteria (Escherichia coli, Salmonella typhimurium, and Pseudomonas aeruginosa) and Gram-positive bacteria (Bacillus subtilis, Staphylococcus aureus, and Staphylococcus epidermidis), as well as methicillin-resistant Staphylococcus aureus strains (MRSA: CCARM 3089, CCARM 3090, CCARM 3095). The samples were subjected to a two-fold serial dilution before being added to the wells, and the plate was incubated at 37 °C for 24 h. The MIC was defined as the lowest peptide concentration that prevented visible bacterial growth. All experiments were conducted in triplicate and included appropriate growth and sterility controls.

Escherichia coli = format: cell-based; conditions: 24 h
Procedure: as §1

Staphylococcus aureus = format: cell-based; conditions: 24 h
Procedure: as §1

[1] = test system: Staphylococcus epidermidis; format: cell-based; conditions: 24 h
Procedure: as §1

Salmonella typhimurium = format: cell-based; conditions: 24 h
Procedure: as §1

Bacillus subtilis = format: cell-based; conditions: 24 h
Procedure: as §1

Pseudomonas aeruginosa = format: cell-based; conditions: 24 h
Procedure: as §1

MRSA CCARM 3095 = format: cell-based, methicillin-resistant Staphylococcus aureus; conditions: CCARM 3095, 24 h
Procedure: as §1

MRSA CCARM 3089 = format: cell-based, methicillin-resistant Staphylococcus aureus; conditions: CCARM 3089, 24 h
Procedure: as §1

MRSA CCARM 3090 = format: cell-based, methicillin-resistant Staphylococcus aureus; conditions: CCARM 3090, 24 h
Procedure: as §1

plasmid DNA (pHIS2) = experiment: DNA-binding gel retardation assay; conditions: plasmid pHIS2 145 μg/mL, 37 °C, 1 h, 1% agarose gel; Figure 5
Procedure: We evaluated the DNA-binding ability of F2 and F2 (C4S) monomeric peptides using gel retardation experiments. The concentration of plasmid DNA (pHIS2) was fixed at 145 μg/mL. The peptide was serially diluted in a binding buffer consisting of 10 mM Tris-HCl (pH 8.0), 5% glucose, 50 μg/mL BSA, 1 mM EDTA, and 20 mM KCl. This solution was then mixed with the DNA and incubated at 37 °C for 1 h. After incubation, the DNA–peptide mixture was stained with DNA gel loading dye. The samples were analyzed using 1% agarose gel electrophoresis in 0.5× TAE buffer. Plasmid bands were detected with a UV illuminator (Bio-Rad, Hercules, CA, USA).

[2] = test system: S. aureus cytoplasmic membrane; experiment: Membrane depolarization assay, DiSC3-(5) dye; format: cell-based, Staphylococcus aureus; conditions: intact S. aureus; 32 µM F2, 4 µM melittin, 16 µM buforin-2; peptide added after 300 s; Figure 2
Procedure: The cytoplasmic membrane depolarization activity of the peptides was assessed using the membrane-potential-sensitive dye DiSC3-(5), following methodologies previously described in the literature. Staphylococcus aureus was cultured in Luria–Bertani (LB) broth at 37 °C until reaching an optical density (O.D.) at 600 nm of 0.3–0.4, indicative of mid-logarithmic phase growth. The cells were then washed with a buffer containing 20 mM glucose and 5 mM HEPES, and the cell suspension was diluted to an O.D. 600 of 0.05 in the same buffer. Potassium chloride (KCl) was added to achieve a final concentration of 100 mM to equilibrate potassium ion levels. The concentrations used for each peptide in our membrane depolarization assays were based on their respective MICs: 32 µM for F2, 4 µM for Melittin, and 16 µM for Buferin-2.
Fluorescence was monitored using an F-4500 FL fluorescence spectrophotometer (Shimadzu, Kyoto, Japan) with excitation and emission wavelengths set at 622 nm and 670 nm, respectively. Melittin, known for its membrane-disrupting properties, served as a positive control, while buforin-2, which translocates across membranes without causing depolarization, acted as a negative control. Both melittin and buforin-2 were tested at concentrations twice their minimal inhibitory concentration (MIC) levels.

S. aureus cell membranes = experiment: SYTOX Green uptake assay; format: cell-based, Staphylococcus aureus; conditions: 32 µM F2, 4 µM melittin, 16 µM buforin-2, Figure 3
Procedure: The membrane permeabilization activity of the peptides was determined using the SYTOX Green uptake assay, as described previously. S. aureus was cultured in LB broth at 37 °C until it reached an optical density (O.D.) at 600 nm of 0.4, indicative of the mid-logarithmic phase. The cells were then washed and diluted to an O.D. 600 of 0.05 using 1× PBS buffer. The dye (SYTOX Green nucleic acid stain) was added to the bacterial suspension at a concentration of […], and the mixture was incubated at 4 °C for 18 h with agitation in the dark. The SYTOX Green-treated bacteria were placed in a quartz cell, where they were simultaneously exposed to the positive control melittin (2× MIC), the negative control buforin-2 (2× MIC), and the F2 dimer (2× MIC). An F-4500 FL fluorescence spectrophotometer (Shimadzu, Kyoto, Japan) was used to monitor fluorescence (excitation 485 nm, emission 520 nm).

E. coli ML-35 = experiment: ONPG hydrolysis assay (inner membrane permeability); format: cell-based, Escherichia coli; conditions: 32 µM F2, 4 µM melittin, 16 µM buforin-2, Figure 4
Procedure: The internal membrane permeability was assessed using the ONPG hydrolysis assay, as described previously. E. coli ML-35p, which constitutively expresses cytoplasmic β-galactosidase and periplasmic β-lactamase, is resistant to ampicillin and deficient in lactose permease. E. coli ML-35 was incubated in LB broth containing ampicillin at 37 °C until the optical density (O.D.) at 600 nm reached 1.0. The cells were then washed with a buffer consisting of 97% 1× PBS and 3% LB and diluted to an O.D. 600 of 0.4 in the same buffer. A mixture of 50 μL of serially diluted peptide and 20 μL of dye (ONPG, final concentration 3 mM) was added to 100 μL of the bacterial suspension in a sterilized 96-well plate. Melittin served as a positive control, while buforin-2 was used as a negative control. The hydrolysis of ONPG was measured using a PHOMO Elisa reader (Autobio, Zhengzhou, China) at 405 nm for each time period.

IRLSRSTYAS-NH2 [F3]
MIC (bacterial strains): > 590 µg/mL | MIC (Escherichia coli): >590 µg/mL | MIC (Staphylococcus aureus): >590 µg/mL

CC(C)[C@H](NC(=O)[C@@H]1CSSC[C@H](NC(=O)[C@@H](NC(=O)[C@H](CCCNC(=N)N)NC(=O)[C@@H](N)CCCNC(=N)N)C(C)C)C(=O)N[C@@H](CCCNC(=N)N)C(=O)N[C@@H](CC(N)=O)C(=O)N[C@@H]([C@@H](C)O)C(=O)N[C@@H]([C@@H](C)O)C(=O)N[C@@H](CC(N)=O)C(=O)N[C@@H](CCCNC(=N)N)C(=O)N1)C(=O)N[C@@H](CCCNC(=N)N)C(=O)N[C@@H](CCCNC(=N)N)C(N)=O [F2-PH] (H-RRVCRNTTNRCVRR-NH2; disulfide 4-11; N-terminus assumed)
MIC [1]: 15 µg/mL (≈ 8.39 µM) | MIC (Salmonella typhimurium; murium): 15 µg/mL (≈ 8.39 µM) | MIC (bacterial strains): 15 µg/mL (≈ 8.39 µM) | MIC (Escherichia coli): 15 µg/mL (≈ 8.39 µM) | MIC (Staphylococcus aureus): 29 µg/mL (≈ 16.2 µM) | MIC (Bacillus subtilis): 29 µg/mL (≈ 16.2 µM) | MIC (Pseudomonas aeruginosa): 15 µg/mL (≈ 8.39 µM) | MIC (MRSA CCARM 3095): 29 µg/mL (≈ 16.2 µM) | MIC (MRSA CCARM 3089): 29 µg/mL (≈ 16.2 µM) | MIC (MRSA CCARM 3090): 58 µg/mL (≈ 32.5 µM)

CC(C)[C@@H]1NC(=O)[C@H](CCCNC(=N)N)NC(=O)[C@H](CCCNC(=N)N)NC(=O)[C@H]([C@@H](C)O)NC(=O)[C@H](CC(N)=O)NC(=O)[C@H](CCCNC(=N)N)NC(=O)[C@@H](NC(=O)[C@@H](NC(=O)[C@H](CCCNC(=N)N)NC(=O)[C@@H](N)CCCNC(=N)N)C(C)C)CSSC[C@@H](C(=O)N[C@@H](CCCNC(=N)N)C(=O)N[C@@H](CC(N)=O)C(=O)N[C@H](C(N)=O)[C@@H](C)O)NC1=O [F2-AH] (H-RRVCRNTRRVCRNT-NH2; disulfide 4-11; N-terminus assumed)
MIC [1]: 15 µg/mL (≈ 8.39 µM) | MIC (Salmonella typhimurium; murium): 15 µg/mL (≈ 8.39 µM) | MIC (bacterial strains): 15 µg/mL (≈ 8.39 µM) | MIC (Escherichia coli): 15 µg/mL (≈ 8.39 µM) | MIC (Staphylococcus aureus): 29 µg/mL (≈ 16.2 µM) | MIC (Bacillus subtilis): 29 µg/mL (≈ 16.2 µM) | MIC (Pseudomonas aeruginosa): 15 µg/mL (≈ 8.39 µM) | MIC (MRSA CCARM 3095): 58 µg/mL (≈ 32.5 µM) | MIC (MRSA CCARM 3089): 29 µg/mL (≈ 16.2 µM) | MIC (MRSA CCARM 3090): 29 µg/mL (≈ 16.2 µM)

RRVSRNT-NH2 [F2 (C15S)]
peptide concentration giving DNA band retardation (plasmid DNA (pHIS2)): > 16 µM | MIC ([1]; Staphylococcus epidermidis, broth microdilution, MHB, 37 °C, triplicate): >227 µg/mL | MIC (Salmonella typhimurium; Salmonella typhimurium, broth microdilution, MHB, 37 °C, triplicate): >227 µg/mL | MIC (bacterial strains): > 227 µg/mL | MIC (Escherichia coli; Escherichia coli, broth microdilution, MHB, 4 × 10^6 CFU/well, 37 °C, triplicate, no deviations): >227 µg/mL | MIC (Staphylococcus aureus; Staphylococcus aureus, broth microdilution, MHB, 37 °C, triplicate): >227 µg/mL | MIC (Bacillus subtilis; Bacillus subtilis, broth microdilution, MHB, 37 °C, triplicate): >227 µg/mL | MIC (Pseudomonas aeruginosa; Pseudomonas aeruginosa, broth microdilution, MHB, 37 °C, triplicate): >227 µg/mL | MIC (MRSA CCARM 3095): >114 µg/mL | MIC (MRSA CCARM 3089): >114 µg/mL | MIC (MRSA CCARM 3090): >114 µg/mL

CC[C@H](C)[C@H](NC(=O)CN)C(=O)NCC(=O)N[C@@H](C)C(=O)N[C@H](C(=O)N[C@@H](CC(C)C)C(=O)N[C@@H](CCCCN)C(=O)N[C@H](C(=O)N[C@@H](CC(C)C)C(=O)N[C@H](C(=O)N[C@H](C(=O)NCC(=O)N[C@@H](CC(C)C)C(=O)N1CCC[C@H]1C(=O)N[C@@H](C)C(=O)N[C@@H](CC(C)C)C(=O)N[C@H](C(=O)N[C@@H](CO)C(=O)N[C@@H](Cc1c[nH]c2ccccc12)C(=O)N[C@H](C(=O)N[C@@H](CCCCN)C(=O)N[C@@H](CCCNC(=N)N)C(=O)N[C@@H](CCCCN)C(=O)N[C@@H](CCCNC(=N)N)C(=O)N[C@@H](CCC(N)=O)C(=O)N[C@@H](CCC(N)=O)C(N)=O)[C@@H](C)CC)[C@@H](C)CC)[C@@H](C)O)[C@@H](C)O)C(C)C)C(C)C [Melittin]
cytoplasmic membrane depolarization (DiSC3-(5) fluorescence) [2]: complete depolarization | SYTOX Green uptake (fluorescence intensity) (S. aureus cell membranes): significant increase in fluorescence intensity | ONPG hydrolysis (absorbance at 405 nm) (E. coli ML-35): change in absorbance

CC[C@H](C)[C@H](NC(=O)[C@@H]1CSSC[C@H](NC(=O)[C@H](CCC(N)=O)NC(=O)[C@@H](N)CC(C)C)C(=O)N[C@@H](CO)C(=O)N[C@H]2CSSC[C@H](NC(=O)[C@H]([C@@H](C)O)NC(=O)[C@H](CC(N)=O)NC(=O)[C@H](CCCNC(=N)N)NC(=O)[C@@H]3CSSC[C@H](NC(=O)[C@H](C(C)C)NC(=O)[C@H](CCCNC(=N)N)NC(=O)[C@H](CCCNC(=N)N)NC2=O)C(=O)N[C@@H](CCCNC(=N)N)C(=O)N[C@@H](CC(N)=O)C(=O)N[C@@H]([C@@H](C)O)C(=O)N[C@H]2CSSC[C@H](NC(=O)[C@H](CO)NC(=O)[C@@H](NC(=O)[C@H](CCC(N)=O)NC(=O)[C@@H](N)CC(C)C)CSSC[C@@H](C(=O)N[C@H](C(=O)N[C@@H](CCCNC(=N)N)C(N)=O)[C@@H](C)CC)NC(=O)[C@H](CO)NC2=O)C(=O)N[C@@H](CCCNC(=N)N)C(=O)N[C@@H](CCCNC(=N)N)C(=O)N[C@@H](C(C)C)C(=O)N3)C(=O)N[C@@H](CO)C(=O)N1)C(=O)N[C@@H](CCCNC(=N)N)C(N)=O [F4] (I: H-LQCSCRRVCRNTCSCIR-NH2 / II: H-LQCSCRRVCRNTCSCIR-NH2; disulfide I:3-II:15, I:5-II:13, I:9-II:9, I:13-II:5, I:15-II:3 (inferred); N-terminus assumed)
MIC (Escherichia coli): 32 µg/mL (≈ 8.02 µM) | MIC (Staphylococcus aureus): 64 µg/mL (≈ 16 µM)

Buforin-2
peptide concentration giving DNA band retardation (plasmid DNA (pHIS2)): 2 µM | cytoplasmic membrane depolarization (DiSC3-(5) fluorescence) [2]: failed to induce any change in membrane potential | SYTOX Green uptake (fluorescence intensity) (S. aureus cell membranes): did not show a similar increase in fluorescence intensity | ONPG hydrolysis (absorbance at 405 nm) (E. coli ML-35): did not alter the absorbance

LRVRRTLQ-NH2 [F1]
MIC (Escherichia coli): 67 µg/mL | MIC (Staphylococcus aureus): >500 µg/mL
